This is an account of results in PubChem BioAssay (NCI).

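48-hour exposure; five concentrations; linearly interpolated endpoints. Abbreviation: GI50, concentration required for 50% inhibition of growth. TGI denotes the concentration required for complete inhibition of growth.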

Among the test systems are RXF 393 renal; ACHN renal; EKVX NSCLC; SR leukemia; MDA-MB-435; CAKI-1 renal; HS 578T breast; IGROV1 ovarian; OVCAR-5 ovarian; KM12 colon.
Common to all, as to assay: NCI anticancer screen, dose series, 48 h

As for `COc1ncc(Nc2ncc([C@@H](C)N3CCN(S(C)(=O)=O)CC3)cc2-c2nc(C)nc(N)n2)cc1F`, the GI50 was 15.8 nM in the test with RXF 393 renal; 65.1 nM with ACHN renal; 0.486 µM in the test with EKVX NSCLC; 4830 nM in the test with SR leukemia; 1150 nM with MDA-MB-435; 194 nM in the test with CAKI-1 renal. The GI50 in the test on HS 578T breast was 24.4 nM; in the test with IGROV1 ovarian, 13.9 nM; with OVCAR-5 ovarian, less than 0.0266 µM; in the test on KM12 colon, 1330 nM. The TGI is 0.453 µM in the test with RXF 393 renal; more than 100 µM in the test on ACHN renal; 12.6 µM in the test on EKVX NSCLC; more than 61.5 µM in the test on SR leukemia; more than 100 µM in the test on MDA-MB-435; more than 100 µM in the test on CAKI-1 renal. In addition, the TGI in the test with HS 578T breast was 3.02 µM; in the test on IGROV1 ovarian, 82.9 nM; in the test on KM12 colon, more than 100 µM.

Regarding `O=C(Nc1cccc(O)c1)c1ccc(NC2=C(Cl)C(=O)N(Cc3ccc(Cl)cc3Cl)C2=O)cc1`, the GI50 with RXF 393 renal is 2310 nM; in the test on ACHN renal, 1750 nM; with EKVX NSCLC, 6.74 µM; in the test with SR leukemia, 168 nM; in the test on MDA-MB-435, 1890 nM; in the test on CAKI-1 renal, 1920 nM. In addition, the GI50 in the test on HS 578T breast is 3240 nM; in the test on IGROV1 ovarian it was 1700 nM; with OVCAR-5 ovarian, 18.8 µM; with KM12 colon it was 1840 nM. Further, the TGI is 4.72 µM with RXF 393 renal; 3.21 µM in the test with ACHN renal; 13.6 µM in the test on EKVX NSCLC; 0.411 µM in the test with SR leukemia; 3.63 µM in the test with MDA-MB-435; 3.58 µM in the test on CAKI-1 renal. Also, the TGI turned out to be 11.9 µM with HS 578T breast, 3300 nM in the test on IGROV1 ovarian, 34.1 µM in the test on OVCAR-5 ovarian and 3.66 µM in the test with KM12 colon.

Turning to `COc1ccc2c(c1)nc(C(=O)c1ccco1)c(C(F)(F)F)[n+]2[O-]`, the GI50 is 47500 nM with RXF 393 renal; more than 100000 nM in the test on ACHN renal; more than 100 µM in the test with EKVX NSCLC; more than 100000 nM in the test on SR leukemia; more than 100000 nM in the test with MDA-MB-435; more than 100000 nM in the test on CAKI-1 renal. For the same molecule, the GI50 with HS 578T breast is more than 100000 nM; in the test with IGROV1 ovarian, more than 100000 nM; in the test on OVCAR-5 ovarian, more than 100 µM; in the test on KM12 colon, more than 100000 nM. The TGI in the test on RXF 393 renal, in the test with ACHN renal, in the test on EKVX NSCLC, in the test with SR leukemia, with MDA-MB-435 and in the test with CAKI-1 renal was more than 100 µM in each case. Further, the TGI is more than 100 µM in the test on HS 578T breast, more than 100000 nM in the test with IGROV1 ovarian, more than 100 µM with OVCAR-5 ovarian and more than 100 µM with KM12 colon.

As for `Cc1ccccc1NC(=O)c1sc2nc(C)c(C(=O)/C=C/c3ccccc3)cc2c1N`, the GI50 with RXF 393 renal is 821 nM; in the test on ACHN renal it was 927 nM; with EKVX NSCLC, 3.86 µM; with SR leukemia, 1130 nM; in the test with MDA-MB-435 it was 895 nM; in the test on CAKI-1 renal, 1080 nM. Moreover, the GI50 in the test on HS 578T breast is 1770 nM; with IGROV1 ovarian it was 953 nM; with OVCAR-5 ovarian, 1.01 µM; in the test on KM12 colon, 901 nM. Moreover, the TGI in the test with RXF 393 renal was 1.6 µM; in the test on ACHN renal, 1.86 µM; in the test with EKVX NSCLC, 11.1 µM; in the test with SR leukemia it was more than 50 µM; with MDA-MB-435, 2.33 µM; in the test with CAKI-1 renal it was 2.68 µM. Besides, the TGI is more than 50 µM in the test with HS 578T breast, 2080 nM with IGROV1 ovarian, 2.62 µM with OVCAR-5 ovarian and 2.02 µM in the test on KM12 colon.

For the molecule `NCCCC[C@@H]1NC(=O)[C@H](CC(=O)O)NC(=O)CNC(=O)[C@H](CCCN=C(N)N)NC(=O)[C@@H](N)CSSC[C@@H](C(=O)O)NC(=O)[C@H](CC(=O)O)NC(=O)[C@@H]2CCCN2C(=O)CNC1=O`, the GI50 in the test on RXF 393 renal was more than 100000 nM; in the test with ACHN renal, more than 100000 nM; with EKVX NSCLC, more than 100 µM; in the test on SR leukemia, more than 100000 nM; in the test with MDA-MB-435, more than 100000 nM; in the test with CAKI-1 renal, more than 100000 nM. Further, the GI50 in the test on HS 578T breast is more than 100000 nM; in the test on IGROV1 ovarian, more than 100000 nM; with OVCAR-5 ovarian, more than 100 µM; with KM12 colon, more than 100000 nM. In addition, the TGI in the test with RXF 393 renal, in the test on ACHN renal, in the test on EKVX NSCLC, in the test on SR leukemia, in the test with MDA-MB-435 and in the test with CAKI-1 renal was more than 100 µM each time. The TGI in the test with HS 578T breast is more than 100 µM; with IGROV1 ovarian, more than 100000 nM; in the test with OVCAR-5 ovarian, more than 100 µM; in the test on KM12 colon it was more than 100 µM.

For the molecule `CC1C(C)N(C(=O)CCl)c2ccccc2N1C(=O)CCl` (centres undefined), the GI50 was 266 nM in the test with RXF 393 renal; 309 nM with ACHN renal; 0.941 µM in the test with EKVX NSCLC; 396 nM in the test on SR leukemia; 276 nM in the test with MDA-MB-435; 186 nM with CAKI-1 renal. The GI50 in the test with HS 578T breast was 1060 nM; with IGROV1 ovarian, 203 nM; in the test with OVCAR-5 ovarian it was 0.896 µM; in the test with KM12 colon, 550 nM. Also, the TGI with RXF 393 renal is 0.961 µM; in the test on ACHN renal it was 0.783 µM; with EKVX NSCLC, 2.42 µM; in the test with SR leukemia, 2.02 µM; in the test on MDA-MB-435, 0.939 µM; in the test on CAKI-1 renal, 0.355 µM. Moreover, the TGI with HS 578T breast came to 7.63 µM; in the test on IGROV1 ovarian, 435 nM; in the test with OVCAR-5 ovarian it was 2.57 µM; in the test on KM12 colon, 1.34 µM.

Turning to `COc1ccc(-c2nc(-c3ccc(C)cc3)cn3ccnc23)cc1`, the GI50 in the test on RXF 393 renal is 2410 nM; in the test with ACHN renal it was 7580 nM; in the test with EKVX NSCLC, 4.38 µM; in the test on SR leukemia it was 300 nM; in the test on MDA-MB-435, 1760 nM; in the test on CAKI-1 renal it was 4780 nM. Besides, the GI50 in the test on HS 578T breast is 20400 nM; in the test with IGROV1 ovarian it was 2430 nM; with OVCAR-5 ovarian it was 28.9 µM; in the test with KM12 colon it was 3250 nM. The TGI in the test on RXF 393 renal is 18.5 µM; in the test on ACHN renal, more than 50 µM; in the test on EKVX NSCLC, more than 50 µM; in the test on SR leukemia, more than 50 µM; with MDA-MB-435, more than 50 µM; in the test with CAKI-1 renal it was more than 50 µM. In addition, the TGI is more than 50 µM with HS 578T breast, more than 50000 nM in the test on IGROV1 ovarian, more than 50 µM with OVCAR-5 ovarian and more than 50 µM in the test on KM12 colon.
